Values of other authors, collected in patent US7807833B2, “Method for total synthesis of ecteinascidins and intermediate compounds thereof” (Japan Science and Technology Agency, priority 2002, dated 2010).

Test system: cancer cells

SMILES	antineoplastic activity compared with ET 743 (qualitative background statement)	IC50 (background statement, cell lines not named, read-out: IC50, depressing the proliferation of cancer cells)	times more potent than Toxol, Camptotesin, Adriamycin or Mitomycin in depressing the proliferation of cancer cells (relative to currently used carcinostatic agents)
COc1c(C)cc2c(c1O)[C@@H]1[C@@H]3Cc4c(OC(C)=O)c(C)c5c(c4[C@H](CN4C(=O)c6ccccc6C4=O)N3[C@@H](C#N)[C@H](C2)N1C)OCO5 [phthalascidin]	same activity to ET 743		
COc1cc2c(cc1O)CCN[C@]21CS[C@@H]2c3c(OC(C)=O)c(C)c4c(c3[C@H](COC1=O)N1[C@@H]2[C@H]2c3c(cc(C)c(OC)c3O)C[C@@H]([C@@H]1O)N2C)OCO4 [Et 743, ecteinascidin 743]		0.1 to 1 nM	10 to 100 times
